Measurements taken from ChEMBL document CHEMBL1201862, “PubChem BioAssay data set” (2004).
Calls of active or inactive are those of the source.

Assays:
Cytochrome P450 3A4 = Cytochrome P450 3A4 (Homo sapiens, UniProt P08684);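 also: CYP3A4 tested as one member of a cytochrome P450 panel screen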
Cytochrome P450 2C9 [1] = target: T1, Cytochrome P450 2C9 (Homo sapiens, UniProt P11712)
Cytochrome P450 2D6 = Cytochrome P450 2D6 (Homo sapiens, UniProt P10635);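 also: CYP2D6 member of a cytochrome P450 panel assay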
Chain of Cytochrome P450 2D6 (P10635 whole entry): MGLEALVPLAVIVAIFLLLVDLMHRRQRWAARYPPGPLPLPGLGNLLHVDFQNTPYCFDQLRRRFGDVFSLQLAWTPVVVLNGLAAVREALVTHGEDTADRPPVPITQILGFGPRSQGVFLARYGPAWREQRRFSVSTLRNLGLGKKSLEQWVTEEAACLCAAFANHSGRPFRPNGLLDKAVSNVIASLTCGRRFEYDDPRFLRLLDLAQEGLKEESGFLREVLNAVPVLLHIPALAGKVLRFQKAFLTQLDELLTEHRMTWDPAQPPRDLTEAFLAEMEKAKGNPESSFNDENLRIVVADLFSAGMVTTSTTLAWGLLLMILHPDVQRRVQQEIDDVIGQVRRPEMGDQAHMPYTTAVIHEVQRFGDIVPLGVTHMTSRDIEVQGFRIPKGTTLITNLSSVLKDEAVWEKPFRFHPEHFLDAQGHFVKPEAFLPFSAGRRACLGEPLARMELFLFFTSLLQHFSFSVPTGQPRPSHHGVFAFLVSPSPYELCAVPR

Cytochrome P450 1A2 = target: T2, Cytochrome P450 1A2 (Homo sapiens, UniProt P05177);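 also: PubChem cytochrome P450 panel assay, CYP1A2 panel member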
T2 sequence (P05177 whole entry): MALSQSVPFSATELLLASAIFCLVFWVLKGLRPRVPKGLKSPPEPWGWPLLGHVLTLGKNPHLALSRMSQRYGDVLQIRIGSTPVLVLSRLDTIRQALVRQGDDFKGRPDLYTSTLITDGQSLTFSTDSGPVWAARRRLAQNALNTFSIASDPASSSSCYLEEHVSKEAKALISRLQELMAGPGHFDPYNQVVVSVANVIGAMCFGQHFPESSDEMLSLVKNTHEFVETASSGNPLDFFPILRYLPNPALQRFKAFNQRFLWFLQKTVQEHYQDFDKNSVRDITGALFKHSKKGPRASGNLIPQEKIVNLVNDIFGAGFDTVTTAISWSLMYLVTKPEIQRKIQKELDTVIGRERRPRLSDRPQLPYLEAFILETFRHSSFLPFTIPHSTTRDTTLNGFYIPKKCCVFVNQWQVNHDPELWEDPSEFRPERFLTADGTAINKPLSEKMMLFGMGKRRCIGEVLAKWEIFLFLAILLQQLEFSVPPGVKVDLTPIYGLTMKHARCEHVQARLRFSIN

Aminopeptidase N = target: T3, Aminopeptidase N (Plasmodium falciparum FcB1/Columbia, UniProt O96935); assay: P. falciparum M1AAP inhibitors, biochemical, fluorogenic H-Leu-NHMec substrate, 1536-well (AID 1445); design: species or system Plasmodium falciparum 3D7, 3D7
T3 sequence (O96935 whole entry): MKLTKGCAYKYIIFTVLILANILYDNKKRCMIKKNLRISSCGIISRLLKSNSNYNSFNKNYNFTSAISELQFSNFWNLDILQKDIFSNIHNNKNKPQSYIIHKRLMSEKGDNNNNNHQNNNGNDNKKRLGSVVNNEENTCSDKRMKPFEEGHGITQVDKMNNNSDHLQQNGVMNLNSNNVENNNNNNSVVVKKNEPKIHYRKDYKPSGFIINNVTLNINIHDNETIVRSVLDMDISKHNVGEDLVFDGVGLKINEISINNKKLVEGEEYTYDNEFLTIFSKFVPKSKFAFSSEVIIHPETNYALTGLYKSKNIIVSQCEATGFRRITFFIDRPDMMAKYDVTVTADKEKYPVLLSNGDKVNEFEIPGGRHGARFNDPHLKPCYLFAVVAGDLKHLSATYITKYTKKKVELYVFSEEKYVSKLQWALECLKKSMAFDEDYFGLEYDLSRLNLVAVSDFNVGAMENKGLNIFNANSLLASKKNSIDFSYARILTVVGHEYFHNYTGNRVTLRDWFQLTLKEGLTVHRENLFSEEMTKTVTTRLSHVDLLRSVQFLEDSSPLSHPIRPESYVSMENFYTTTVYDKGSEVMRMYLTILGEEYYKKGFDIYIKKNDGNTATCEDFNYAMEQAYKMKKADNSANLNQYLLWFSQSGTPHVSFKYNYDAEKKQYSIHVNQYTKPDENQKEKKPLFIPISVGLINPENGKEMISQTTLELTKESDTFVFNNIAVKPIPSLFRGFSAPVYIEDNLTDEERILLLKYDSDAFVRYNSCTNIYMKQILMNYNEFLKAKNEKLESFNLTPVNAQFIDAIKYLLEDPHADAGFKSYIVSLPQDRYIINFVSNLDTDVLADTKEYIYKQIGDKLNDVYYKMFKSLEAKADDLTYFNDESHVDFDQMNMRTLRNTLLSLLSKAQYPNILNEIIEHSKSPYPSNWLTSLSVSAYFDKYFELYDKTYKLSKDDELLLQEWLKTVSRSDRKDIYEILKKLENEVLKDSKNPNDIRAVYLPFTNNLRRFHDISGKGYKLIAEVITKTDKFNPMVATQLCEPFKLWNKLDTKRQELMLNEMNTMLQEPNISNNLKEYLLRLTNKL

Cytochrome P450 2C19 = Cytochrome P450 2C19 (Homo sapiens, UniProt P33261); assay: Cytochrome panel assay with activity outcomes. Panel member name: p450-cyp2c19 Compounds with AC50 equal or less than 10 uM are considered active; assay type: functional; details: read-out: AC50
Chain of Cytochrome P450 2C19 (P33261 whole entry): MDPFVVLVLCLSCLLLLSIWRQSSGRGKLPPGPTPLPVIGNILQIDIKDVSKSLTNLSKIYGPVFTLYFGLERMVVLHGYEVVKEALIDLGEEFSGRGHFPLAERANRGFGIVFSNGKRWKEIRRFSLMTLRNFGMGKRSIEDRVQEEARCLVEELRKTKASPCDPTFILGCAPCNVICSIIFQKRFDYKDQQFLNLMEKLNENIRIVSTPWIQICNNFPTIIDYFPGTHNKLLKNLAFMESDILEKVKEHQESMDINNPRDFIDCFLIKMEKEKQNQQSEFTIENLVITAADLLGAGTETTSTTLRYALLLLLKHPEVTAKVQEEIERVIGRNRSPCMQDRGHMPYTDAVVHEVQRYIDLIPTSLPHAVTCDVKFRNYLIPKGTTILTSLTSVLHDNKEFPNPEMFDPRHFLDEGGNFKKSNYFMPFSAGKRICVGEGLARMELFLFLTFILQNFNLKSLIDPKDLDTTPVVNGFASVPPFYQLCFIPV

Genome polyprotein = Genome polyprotein (dengue virus type 2, UniProt P29990); assay: Dengue-2 NS5 methyltransferase inhibitors, primary screen, biochemical, confirmation dose response (AID 588689); assay type: functional
Chain of Genome polyprotein (P29990 2492-3391 limits assumed): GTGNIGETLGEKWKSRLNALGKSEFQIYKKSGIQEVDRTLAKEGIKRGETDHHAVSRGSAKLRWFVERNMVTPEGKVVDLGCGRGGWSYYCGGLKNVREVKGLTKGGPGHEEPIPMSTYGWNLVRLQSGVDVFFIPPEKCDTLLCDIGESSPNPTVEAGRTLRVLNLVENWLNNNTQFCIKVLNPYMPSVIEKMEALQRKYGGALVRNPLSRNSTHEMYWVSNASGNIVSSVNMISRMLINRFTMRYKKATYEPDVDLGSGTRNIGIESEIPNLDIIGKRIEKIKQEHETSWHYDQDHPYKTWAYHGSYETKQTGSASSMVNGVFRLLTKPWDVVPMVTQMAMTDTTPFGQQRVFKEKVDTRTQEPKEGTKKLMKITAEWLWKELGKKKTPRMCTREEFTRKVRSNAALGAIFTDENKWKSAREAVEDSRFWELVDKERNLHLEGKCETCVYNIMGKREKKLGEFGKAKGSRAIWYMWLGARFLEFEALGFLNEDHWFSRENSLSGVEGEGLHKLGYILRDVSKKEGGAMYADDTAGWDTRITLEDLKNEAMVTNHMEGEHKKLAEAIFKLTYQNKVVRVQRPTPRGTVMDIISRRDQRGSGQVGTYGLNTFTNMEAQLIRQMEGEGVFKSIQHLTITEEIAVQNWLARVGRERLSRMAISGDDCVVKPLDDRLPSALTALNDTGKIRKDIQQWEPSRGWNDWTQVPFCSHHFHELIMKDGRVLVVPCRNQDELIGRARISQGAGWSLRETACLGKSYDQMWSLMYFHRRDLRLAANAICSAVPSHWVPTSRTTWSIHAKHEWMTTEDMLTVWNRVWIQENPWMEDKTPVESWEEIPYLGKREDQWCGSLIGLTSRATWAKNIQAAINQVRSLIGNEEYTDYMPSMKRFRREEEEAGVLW

[2] = target: T4, Replicative DNA helicase DnaB (Mycobacterium tuberculosis, UniProt P9WMR3); assay: DnaB intein splicing inhibitors, dose response, biochemical, cell-free fluorescence (AID 449749); assay type: functional
T4 sequence (P9WMR3 whole entry): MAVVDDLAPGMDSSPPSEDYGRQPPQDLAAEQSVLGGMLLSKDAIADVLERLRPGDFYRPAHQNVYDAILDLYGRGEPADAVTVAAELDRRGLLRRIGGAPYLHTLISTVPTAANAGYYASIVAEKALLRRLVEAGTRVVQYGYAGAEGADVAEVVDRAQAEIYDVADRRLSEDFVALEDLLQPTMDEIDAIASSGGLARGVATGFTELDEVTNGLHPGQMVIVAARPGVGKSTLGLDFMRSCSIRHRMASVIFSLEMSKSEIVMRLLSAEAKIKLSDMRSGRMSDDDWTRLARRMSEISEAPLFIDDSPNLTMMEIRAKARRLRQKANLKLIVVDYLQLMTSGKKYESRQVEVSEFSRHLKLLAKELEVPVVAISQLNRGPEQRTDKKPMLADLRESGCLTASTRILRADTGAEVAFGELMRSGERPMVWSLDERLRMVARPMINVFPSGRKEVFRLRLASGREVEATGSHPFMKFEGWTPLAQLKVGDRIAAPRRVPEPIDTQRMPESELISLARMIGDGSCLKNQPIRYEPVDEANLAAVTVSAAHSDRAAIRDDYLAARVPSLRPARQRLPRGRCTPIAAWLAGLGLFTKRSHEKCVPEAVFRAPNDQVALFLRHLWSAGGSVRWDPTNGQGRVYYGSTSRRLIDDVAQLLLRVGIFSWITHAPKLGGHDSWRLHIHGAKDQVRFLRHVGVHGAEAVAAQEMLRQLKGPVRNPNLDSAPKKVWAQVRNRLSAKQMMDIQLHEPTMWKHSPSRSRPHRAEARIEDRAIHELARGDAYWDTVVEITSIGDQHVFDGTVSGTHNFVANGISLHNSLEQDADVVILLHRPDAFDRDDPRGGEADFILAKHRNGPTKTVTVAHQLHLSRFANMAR

Protein RecA = target: T5, Protein RecA (Mycobacterium tuberculosis, UniProt P9WHJ3); assay: Fluorescence Cell-Free Homogeneous Dose Retest to Identify Inhibitors of RecA-Intein Splicing Activity. [Related pubchem assays (depositor defined):AID2097, AID2223, AID489010, AID492950]; assay type: functional
T5 sequence (P9WHJ3 whole entry): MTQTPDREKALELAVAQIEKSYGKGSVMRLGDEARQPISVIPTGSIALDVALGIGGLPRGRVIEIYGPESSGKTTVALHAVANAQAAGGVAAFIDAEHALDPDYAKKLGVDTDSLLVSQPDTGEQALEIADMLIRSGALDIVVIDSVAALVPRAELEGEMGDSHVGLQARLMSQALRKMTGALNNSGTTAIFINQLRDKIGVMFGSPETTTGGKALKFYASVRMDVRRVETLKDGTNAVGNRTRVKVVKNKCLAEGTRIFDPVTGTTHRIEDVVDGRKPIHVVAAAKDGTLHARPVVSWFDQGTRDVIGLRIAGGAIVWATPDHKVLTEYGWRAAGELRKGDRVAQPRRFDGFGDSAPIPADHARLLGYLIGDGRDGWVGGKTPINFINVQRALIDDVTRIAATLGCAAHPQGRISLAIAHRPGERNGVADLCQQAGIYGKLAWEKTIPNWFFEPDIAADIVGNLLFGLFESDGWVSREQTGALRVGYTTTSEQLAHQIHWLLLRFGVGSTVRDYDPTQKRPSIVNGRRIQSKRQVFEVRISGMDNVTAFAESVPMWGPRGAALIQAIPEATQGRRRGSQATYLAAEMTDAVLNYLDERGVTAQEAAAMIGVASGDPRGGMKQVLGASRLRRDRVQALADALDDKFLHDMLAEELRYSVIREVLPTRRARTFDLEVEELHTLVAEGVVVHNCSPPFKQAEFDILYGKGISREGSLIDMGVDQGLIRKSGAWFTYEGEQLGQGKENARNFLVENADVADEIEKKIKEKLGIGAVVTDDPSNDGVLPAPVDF

[3] = target: T6, Rac GTPase-activating protein 1 (Homo sapiens, UniProt Q9H0H5); assay: MgcRacGAP GTPase-activating activity inhibitors, confirmation, biochemical, ADP Hunter fluorescence, primary and confirmatory (AID 624330); assay type: functional
T6 sequence (Q9H0H5 whole entry): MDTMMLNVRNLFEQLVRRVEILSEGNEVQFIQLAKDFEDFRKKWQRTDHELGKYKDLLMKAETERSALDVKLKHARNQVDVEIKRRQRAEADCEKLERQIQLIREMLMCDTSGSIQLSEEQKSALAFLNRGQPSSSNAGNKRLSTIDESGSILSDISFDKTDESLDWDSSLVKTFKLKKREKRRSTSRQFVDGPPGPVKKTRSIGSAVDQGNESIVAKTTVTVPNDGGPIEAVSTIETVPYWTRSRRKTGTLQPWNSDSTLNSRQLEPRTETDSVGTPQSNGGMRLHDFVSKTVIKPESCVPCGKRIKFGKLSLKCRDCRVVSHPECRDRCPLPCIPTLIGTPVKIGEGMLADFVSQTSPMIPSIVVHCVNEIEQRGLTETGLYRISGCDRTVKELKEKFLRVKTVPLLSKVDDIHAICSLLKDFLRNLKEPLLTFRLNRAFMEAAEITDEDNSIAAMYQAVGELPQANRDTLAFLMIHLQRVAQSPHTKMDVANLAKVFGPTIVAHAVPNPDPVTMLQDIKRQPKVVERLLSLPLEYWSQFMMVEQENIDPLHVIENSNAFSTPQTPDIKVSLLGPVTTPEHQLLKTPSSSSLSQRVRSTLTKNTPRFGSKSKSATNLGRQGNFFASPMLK

Cytochrome P450 2C9 [4] = target: T1, Cytochrome P450 2C9; remark: listed apart in the source

T1 sequence (P11712 whole entry): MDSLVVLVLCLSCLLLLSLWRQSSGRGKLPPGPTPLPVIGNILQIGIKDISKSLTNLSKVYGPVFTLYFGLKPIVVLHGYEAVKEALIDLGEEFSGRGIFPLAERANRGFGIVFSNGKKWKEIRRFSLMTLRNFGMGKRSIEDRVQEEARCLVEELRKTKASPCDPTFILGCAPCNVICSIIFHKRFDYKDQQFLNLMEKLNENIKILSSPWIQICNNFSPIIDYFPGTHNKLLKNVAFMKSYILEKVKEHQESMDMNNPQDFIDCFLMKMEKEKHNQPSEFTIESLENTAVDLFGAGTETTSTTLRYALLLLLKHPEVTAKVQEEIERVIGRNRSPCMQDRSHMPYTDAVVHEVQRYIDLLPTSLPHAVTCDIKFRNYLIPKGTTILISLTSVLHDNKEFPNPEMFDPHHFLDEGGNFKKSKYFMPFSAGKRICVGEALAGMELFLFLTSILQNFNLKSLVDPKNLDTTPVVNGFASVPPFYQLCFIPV
Chain of Cytochrome P450 3A4 (P08684 whole entry): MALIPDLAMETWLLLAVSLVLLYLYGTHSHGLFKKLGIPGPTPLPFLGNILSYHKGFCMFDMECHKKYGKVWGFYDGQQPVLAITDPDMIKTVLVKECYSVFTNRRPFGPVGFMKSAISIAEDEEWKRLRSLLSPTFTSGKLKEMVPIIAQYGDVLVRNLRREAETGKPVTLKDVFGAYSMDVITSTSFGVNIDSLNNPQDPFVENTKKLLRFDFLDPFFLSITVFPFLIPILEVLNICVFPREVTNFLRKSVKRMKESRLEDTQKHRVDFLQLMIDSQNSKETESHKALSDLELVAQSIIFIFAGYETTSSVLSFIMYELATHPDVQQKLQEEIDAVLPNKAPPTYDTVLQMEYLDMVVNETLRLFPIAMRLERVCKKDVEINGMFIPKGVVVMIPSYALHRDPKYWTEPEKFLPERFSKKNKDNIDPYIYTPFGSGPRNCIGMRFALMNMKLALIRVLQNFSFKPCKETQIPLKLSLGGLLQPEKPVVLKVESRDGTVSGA

## CN1[C@@H]2CC[C@H]1CC(O[C@@H](c1ccccc1)c1ccccc1N)C2 (stereo partly drawn)
Cytochrome P450 3A4
  AC50: 12.6 µM (inconclusive)
Cytochrome P450 2C9 [1]
  AC50: inconclusive
Cytochrome P450 2D6
  AC50: 25.1 µM (inconclusive)
Cytochrome P450 1A2
  AC50: 15.8 µM (inconclusive)

## COC(=O)c1ccccc1NC(=O)c1ccc(COc2ccc(C)c(C)c2)o1
Cytochrome P450 3A4
  AC50: 1.41 µM (inconclusive)
Cytochrome P450 2C9 [1]
  AC50: inconclusive

## COc1ccc2cc(C#N)c(SCC(=O)N3CCCC3)nc2c1
Aminopeptidase N
  IC50: 55.7 µM (active)

## Cc1cc(C)cc(OCC(=O)Nc2ccc3c4c(cccc24)CC3)c1
Cytochrome P450 2C19
  AC50: 11.2 µM (inconclusive)
Cytochrome P450 2C9 [1]
  AC50: inconclusive
Cytochrome P450 1A2
  AC50: 2.51 µM (inconclusive)

## CC(C)(C)NC(=O)C(Cc1ccccc1)NS(=O)(=O)c1ccc2c(c1)CCC(=O)N2 (stereo not drawn)
Cytochrome P450 2C9 [1]
  AC50: inconclusive
Cytochrome P450 2D6
  AC50: 12.6 µM (inconclusive)

## O=C(Nn1c(-c2ccccc2)nc2ccccc2c1=O)c1cccs1
Aminopeptidase N
  IC50: 51.1 µM (active)

## Cc1nc(S(=O)(=O)c2cccc(Cl)c2)nc2c1CCC2
Cytochrome P450 2C9 [1]
  AC50: inconclusive
Cytochrome P450 1A2
  AC50: 12.6 µM (inconclusive)

## CCOC(=O)COc1ccc(Br)cc1/C=C\c1nc(O)nc(O)c1[N+](=O)[O-]
Aminopeptidase N
  IC50: 36.5 µM (active)

## Cc1ccc(S(=O)(=O)NN2C(=O)/C(=C/c3cccs3)SC2=S)cc1
Aminopeptidase N
  IC50: 30.9 µM (active)
Genome polyprotein
  IC50: 35.3 µM (active)

## CC1=NN(c2ccccc2)C(=O)/C1=C/c1cccc(C)c1
[2]
  AC50: 3.59 µM (active)
Genome polyprotein
  IC50: 50.5 µM (active)
Protein RecA
  EC50: 1.58 µM (active)

## CCOc1ccc(NC(=O)CCNS(=O)(=O)c2ccc3c(c2)c(=O)n(C)c(=O)n3C)cc1
Cytochrome P450 2C9 [1]
  AC50: inconclusive
Cytochrome P450 1A2
  AC50: 2.51 µM (inconclusive)

## Cc1c(NC(=S)N/N=C/c2ccc(O)cc2)c(=O)n(-c2ccccc2)n1C
Cytochrome P450 2C9 [1]
  AC50: inconclusive
[3]
  IC50: 55.6 µM (active)

## O=C(N/N=C1\CCCc2ccccc21)c1ccc([N+](=O)[O-])cc1Cl
Cytochrome P450 2C9 [1]
  AC50: inconclusive

## N=C(N)NC(=O)Cc1c(Cl)cccc1Cl [GUANFACINE]
Cytochrome P450 2C9 [4]
  AC50: 31.6 µM (inconclusive)
Cytochrome P450 2C9 [1]
  AC50: inconclusive
